Measured values as given in article PMC4376353 (Angewandte Chemie (International ed. in English), 2015).

Legend:
[1] = biological target: T1, LanGT2 (Streptomyces cyanogenus, UniProt Q9ZGC0); experiment: X-ray crystal structure; assay type: binding; settings: non-hydrolyzable substrate analogue; nucleotide-sugar site; 1.85 Å
T1 sequence (Q9ZGC0 1-373): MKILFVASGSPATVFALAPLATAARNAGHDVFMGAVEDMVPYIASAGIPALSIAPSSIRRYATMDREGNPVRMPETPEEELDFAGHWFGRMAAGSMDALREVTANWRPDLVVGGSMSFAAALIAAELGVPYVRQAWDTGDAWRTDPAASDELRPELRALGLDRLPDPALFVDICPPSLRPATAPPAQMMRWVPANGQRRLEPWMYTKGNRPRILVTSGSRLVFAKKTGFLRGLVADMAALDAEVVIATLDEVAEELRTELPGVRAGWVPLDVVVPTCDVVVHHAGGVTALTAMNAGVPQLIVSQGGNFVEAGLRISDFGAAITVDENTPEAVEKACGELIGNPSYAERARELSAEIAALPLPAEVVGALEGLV

[2] = biological target: T1, LanGT2; experiment: X-ray crystal structure; assay type: binding; settings: nucleotide-sugar site; TDP-olivose had broken down, product TDP bound

Structure (SMILES): Cc1cn([C@H]2C[C@H](O)[C@@H](COP(=O)(O)OP(=O)(O)O[C@@H]3C[C@@H](O)[C@H](O)[C@@H](C)C3)O2)c(=O)[nH]c1=O [compound 8, TDP-carba-D-olivose]
- X-ray crystal structure (crystal soaking) [1]: LanGT2 crystals were soaked with the synthetic TDP-carba-D-olivose (TcO)

Structure (SMILES): Cc1cn([C@H]2C[C@H](O)[C@@H](COP(=O)(O)OP(=O)(O)O)O2)c(=O)[nH]c1=O [TDP]
- X-ray crystal structure (crystals treated with TDP-olivose) [2]: thus resulting in structures that invariably only had the product TDP bound
